# Laboratory results from US6984499B2, “Method and apparatus for concurrently detecting pathogenic organisms and antimicrobial susceptibility” (IDEXX Laboratories, Inc., priority 1997, dated 2006).
# Experiments:
# [1] = test system: gram negative urinary pathogens (Escherichia coli, Klebsiella spp, Enterobacter spp., Proteus spp.); assay: AMO medium (amoxicillin) in urinary tract infection device; assay type: cell-based, feline and canine urine specimens
# Experimental: The medium is formulated according to techniques well known to those skilled in the art. The medium comprises UTI media with amoxicillin at a concentration of 8 mg/liter.
# A total of 303 feline and canine urine specimens were collected from the animals suspected of having urinary tract infection were tested with the “AMO” medium. A 50 μl aliquot of the urine specimen was added to 10 ml of sterile saline solution (0.85% NaCl solution). A 100 μl of the diluted urine specimens were added to the “AMO” medium in the urinary tract infection device; the device was then incubated at 35° C. for 24 hours.
# [2] = test system: gram negative urinary pathogens (Escherichia coli, Klebsiella spp, Enterobacter spp., Proteus spp.); assay: standard Kirby-Bauer antimicrobial susceptibility assay, amoxicillin; assay type: cell-based, feline and canine urine specimens; settings: Total of 58
# Experimental: (§1) For comparison a traditional microbiological culture, bacterial identification technique, and antimicrobial susceptibility test were performed. A portion of 1 μl urine specimen was streaked onto a blood agar plate; the plate was then incubated at 35° C. for 24–48 hours. […] The susceptibility of amoxicillin of the gram negative urinary pathogens (Escherichia coli, Klebsiella spp, Enterobacter supp., and Proteus spp.) Were performed by standard Kirby-Bauer antimicrobial susceptibility assay.
# [3] = test system: primary gram negative uropathogens; assay: five-well device (TVB, UTI, AMO, AMC, ENR wells), fluorescence, four urine samples; assay type: cell-based; settings: Sample 2; incubation 18 hours
# Excerpt: In a presently preferred embodiment, this invention comprises a device having a series of 5 test wells. Each well comprises a specific medium coupled with a fluorogenic enzyme substrate for the detection of target bacteria and their respective antibiotic resistance patterns. The wells produce a fluorescent signal when bacteria grow in them.
# The wells were termed a total viable bacteria “TVB” well, a primary gram negative urinary tract infection organisms “UTI” well, and individual wells which contain an antimicrobial susceptibility media with an antibiotic amoxicillin “AMO”, clavulanic acid/amoxicillin (Clavamox®) “AMC”, or enrofloxacin (Baytril®) “ENR”.
# The total viable bacteria “TVB” well, when it fluoresces, indicates the presence of bacteria in the urine sample. The “UTI” well fluoresces when the common Gram-negative uropathogens (E. coli, Klebsiella or Enterobacter spp., and P. mirabilis) are present in the urine sample. […]
# For each device, after an incubation period of 18 hours, the wells were examined for the development of fluorescence and conclusions about the presence of primary urinary pathogens and their susceptibility to the antimicrobial agents employed were drawn.
# [4] = test system: Enterobacter cloacae ATCC 13047; assay: standard Muller Hinton broth (MHB) microdilution susceptibility; assay type: cell-based; settings: E. cloacae
# Experimental: (§2) The representative primary gram negative urinary pathogens including Escherichia coli ATCC 25922, Klebsiella pneumoniae, Enterobacter cloacae ATCC 13047, and Proteus mirabilis were used to determine the antimicrobial efficacy of cephalothin in CR 30 medium in reaction to the standard Muller Hinton microdilution antimicrobial susceptibility ((NCCLS Antimicrobial Susceptibility Testing/SC3, January, 1996). Cephalothin was prepared in both standard Muller Hinton broth (MHB) and CR30 medium (CR30M) at the following concentrations: 128, 64, 32, 16, 8, 4, 2, and 0 mg/liter. Bacterial inocula used for each level of inoculation were 1–5×10^4 cfu/100 μl. The assays were performed in microliter wells at 35° C. for 18 hours.
# (§3) The bacteria are defined as “resistant” to cephalothin if the organism has an MIC of ≧32 μg/ml, as “intermediate resistant” if the MIC is 16 μg/ml, and as “susceptible” if the MIC is 8 μg/ml as determined by the standard Muller Hinton broth (Manual of Clinical Microbiology, 6th ed. 1995; ASM Press).
# [5] = test system: Escherichia coli ATCC 25922; assay: as above; assay type: cell-based; settings: E. coli
# Experimental: as §2, §3
# [6] = test system: Klebsiella pneumoniae; assay: as above; assay type: cell-based; settings: K. pneumoniae
# Experimental: as §2, §3
# [7] = test system: Proteus mirabilis; assay: as above; assay type: cell-based; settings: P. mirabilis
# Experimental: as §2, §3
# [8] = test system: Enterobacter cloacae ATCC 13047; assay: CR30 medium (CR30M) microdilution susceptibility; assay type: cell-based; settings: E. cloacae
# Experimental: (§4) The medium is formulated according to techniques well known to those skilled in the art. The medium comprises the uropathogen specific medium with 32 mg/liter of cephalothin.
# as §2, §3
# [9] = test system: Escherichia coli ATCC 25922; assay: CR30 medium (CR30M) microdilution susceptibility; assay type: cell-based; settings: E. coli
# Experimental: as §4, §2, §3
# [10] = test system: Klebsiella pneumoniae; assay: CR30 medium (CR30M) microdilution susceptibility; assay type: cell-based; settings: K. pneumoniae
# Experimental: as §4, §2, §3
# [11] = test system: Proteus mirabilis; assay: CR30 medium (CR30M) microdilution susceptibility; assay type: cell-based; settings: P. mirabilis
# Experimental: as §4, §2, §3
# [12] = test system: gram negative urinary pathogens (Escherichia coli, Klebsiella spp, Enterobacter spp., Proteus spp.); assay: standard Kirby-Bauer antimicrobial susceptibility assay, enrofloxacin; assay type: cell-based, feline and canine urine specimens; settings: Total of 58
# Experimental: as §1, with “enrofloxacin” for “amoxicillin”, “spp.,” for “supp.,”, “were” for “Were”
# [13] = test system: gram negative urinary pathogens (Escherichia coli, Klebsiella spp, Enterobacter spp., Proteus spp.); assay: ENR medium (enrofloxacin) in urinary tract infection device; assay type: cell-based, feline and canine urine specimens
# Experimental: The medium is formulated according to techniques well known to those skilled in the art. The media comprises UTI media with enrofloxacin (ENR) at a concentration of 2.0 mg/liter.
# A total of 303 feline and canine urine specimens were collected from the animals suspected of having urinary tract infection were tested with the “ENR” medium. A 50 μl aliquot of the urine specimen was added to 10 ml of sterile saline solution (0.85% NaCl solution). A 100 μl of the diluted urine specimens was added to the “ENR” medium in the urinary tract infection device; the device was then incubated at 35° C. for 24 hours.
# [14] = Susceptible by Kirby-Bauer Assay
compound,measurement,setting,value
"CC1(C)S[C@@H]2[C@H](NC(=O)[C@H](N)c3ccc(O)cc3)C(=O)N2[C@H]1C(=O)O [Amoxicillin, amoxicillin]",number of specimens Resistant in AMO Medium,[1]; Resistant by Kirby-Bauer Assay,21
same,number of specimens Susceptible in AMO Medium,[1]; Resistant by Kirby-Bauer Assay,1
same,number of specimens Resistant in AMO Medium,[1]; [14],1
same,number of specimens Susceptible in AMO Medium,[1]; [14],35
same,number of specimens Resistant in AMO Medium,[1]; Total of 58,22
same,number of specimens Susceptible in AMO Medium,[1]; Total of 58,36
same,number of specimens Resistant by Kirby-Bauer Assay,[2],22
same,number of specimens Susceptible by Kirby-Bauer Assay,[2],36
same,susceptibility of primary gram negative uropathogens to the antimicrobial agent,[3],resistant
CC(=O)OCC1=C(C(=O)O)N2C(=O)[C@@H](NC(=O)Cc3cccs3)[C@H]2SC1 [cephalothin],categorical susceptibility to cephalothin,[4],resistant
same,categorical susceptibility to cephalothin,[5],susceptible
same,categorical susceptibility to cephalothin,[6],susceptible
same,categorical susceptibility to cephalothin,[7],susceptible
same,categorical susceptibility to cephalothin,[8],resistant
same,categorical susceptibility to cephalothin,[9],susceptible
same,categorical susceptibility to cephalothin,[10],susceptible
same,categorical susceptibility to cephalothin,[11],susceptible
"CCN1CCN(c2cc3c(cc2F)c(=O)c(C(=O)O)cn3C2CC2)CC1 [Enrofloxacin, enrofloxacin]",number of specimens Resistant by Kirby-Bauer Assay,[12],6
same,number of specimens Susceptible by Kirby-Bauer Assay,[12],52
same,number of specimens Resistant in ENR Medium,[13]; Resistant by Kirby-Bauer Assay,5
same,number of specimens Susceptible in ENR Medium,[13]; Resistant by Kirby-Bauer Assay,1
same,number of specimens Resistant in ENR Medium,[13]; [14],2
same,number of specimens Susceptible in ENR Medium,[13]; [14],50
same,number of specimens Resistant in ENR Medium,[13]; Total of 58,7
same,number of specimens Susceptible in ENR Medium,[13]; Total of 58,51
same,susceptibility of primary gram negative uropathogens to the antimicrobial agent,[3],susceptible
